Reference: patent US11001569B2, “6-membered heteroaromatic substituted cyanoindoline derivatives as NIK inhibitors” (Janssen Pharmaceutica NV, priority 2016, dated 2021)
Where “and” joins values, the source holds several entries; their conditions need not be identical. Equal entries are not always repeated. Where two headings read alike, the source gives them in different places.

What was measured:
[1] = target: recombinant human NF-kappaB-inducing Kinase (NIK/MAP3K14) (Homo sapiens, UniProt Q99558); experiment: Inhibition of auto-phosphorylation of recombinant human NIK/MAP3K14 activity (AlphaScreen); assay type: biochemical; conditions: 25 microM ATP, averaged over all measurements on all batches
Protocol: Pharmacological Part Biological assay A Inhibition of auto-phosphorylation of recombinant human NF-kappaB-inducing Kinase (NIK/MAP3K14) Activity (AlphaScreen®)
NIK/MAP3K14 auto-phosphorylation activity was measured using the AlphaScreen® (αscreen) format (Perkin Elmer). All compounds tested were dissolved in dimethyl sulfoxide (DMSO) and further dilutions were made in assay buffer. Final DMSO concentration was 1% (v/v) in assays. Assay buffer was 50 mM Tris pH 7.5 containing 1 mM EGTA (ethylene glycol tetraacetic acid), 1 mM DTT (dithiothreitol), 0.1 mM Na3VO4, 5 mM MgCl2, 0.01% Tween® 20. Assays were carried out in 384 well Alphaplates (Perkin Elmer). […] Incubations were initiated by addition of GST-tagged NIK/MAP3K14 enzyme, carried out for 1 h at 25° C. and terminated by addition of stop buffer containing anti-phospho-IKK Ser176/180 antibody. Protein A Acceptor and Glutathione-Donor beads were added before reading using an EnVision® Multilabel Plate Reader (Perkin Elmer). Signal obtained in the wells containing blank samples was subtracted from all other wells and IC50's were determined by fitting a sigmoidal curve to % inhibition of control versus Log10 compound concentration.

[2] = tested on: KMS12-BM (NIK WT) multiple myeloma cells; experiment: Antiproliferative activity on KMS12-BM multiple myeloma cells (CellTiter-Glo); assay type: cell-based, human; conditions: 96 hr treatment, averaged values, read-out: KMS-12 Proliferation inhibition (IC50 (nM))
Protocol: (§1) Determination of Antiproliferative Activity on JJN-3 (NIK Translocated) and KMS12-BM (NIK WT) Multiple Myeloma Cells
(§2) All compounds tested were dissolved in DMSO and further dilutions were made in culture medium. Final DMSO concentration was 0.3% (v/v) in cell proliferation assays. Viability was assessed using CellTiter-Glo cell viability assay kit (Promega). […] Cells were routinely kept as suspension cells at 37° C. in a humidified 5% CO2 atmosphere. Cells were passaged at a seeding density of 0.2×10^6/ml twice a week. Cells were seeded in black tissue culture treated 96-well plates (Perkin Elmer). Densities used for plating ranged from 15000 (JJN3) to 20000 (KMS12BM) cells per well in a total volume of 135 μl medium. Drugs and/or solvents were added (15 μl) to a final volume of 150 μl. Following 96 hr of treatment, plates were removed from the incubator and allowed to equilibrate to room temperature for approx 10 min. 75 μl CellTiter-Glo reagent was added to each well that was then covered (Perkin Elmer Topseal) and shaken on plate shaker for 10 min. Luminescence was measured on a HTS Topcount (Perkin Elmer). […] For initial screening purposes, compounds were tested using a 9 point dilution curve (serial 1:3 dilutions). For each experiment, controls (containing no drug) and a blank incubation (containing cells read at the time of compound addition) were run in parallel. The blank value was subtracted from all control and sample values. For each sample, the mean value for cell growth (in relative light units) was expressed as a percentage of the mean value for cell growth of the control.

[3] = tested on: JJN-3 (NIK translocated) multiple myeloma cells; experiment: Antiproliferative activity on JJN-3 multiple myeloma cells (CellTiter-Glo); assay type: cell-based, human; conditions: JJN-3 (NIK translocated) cells, 96 hr treatment, averaged values, read-out: JJN-3 Proliferation inhibition (IC50 (nM))
Protocol: as §1, §2

Sequence of recombinant human NF-kappaB-inducing Kinase (NIK/MAP3K14) (Q99558 whole entry): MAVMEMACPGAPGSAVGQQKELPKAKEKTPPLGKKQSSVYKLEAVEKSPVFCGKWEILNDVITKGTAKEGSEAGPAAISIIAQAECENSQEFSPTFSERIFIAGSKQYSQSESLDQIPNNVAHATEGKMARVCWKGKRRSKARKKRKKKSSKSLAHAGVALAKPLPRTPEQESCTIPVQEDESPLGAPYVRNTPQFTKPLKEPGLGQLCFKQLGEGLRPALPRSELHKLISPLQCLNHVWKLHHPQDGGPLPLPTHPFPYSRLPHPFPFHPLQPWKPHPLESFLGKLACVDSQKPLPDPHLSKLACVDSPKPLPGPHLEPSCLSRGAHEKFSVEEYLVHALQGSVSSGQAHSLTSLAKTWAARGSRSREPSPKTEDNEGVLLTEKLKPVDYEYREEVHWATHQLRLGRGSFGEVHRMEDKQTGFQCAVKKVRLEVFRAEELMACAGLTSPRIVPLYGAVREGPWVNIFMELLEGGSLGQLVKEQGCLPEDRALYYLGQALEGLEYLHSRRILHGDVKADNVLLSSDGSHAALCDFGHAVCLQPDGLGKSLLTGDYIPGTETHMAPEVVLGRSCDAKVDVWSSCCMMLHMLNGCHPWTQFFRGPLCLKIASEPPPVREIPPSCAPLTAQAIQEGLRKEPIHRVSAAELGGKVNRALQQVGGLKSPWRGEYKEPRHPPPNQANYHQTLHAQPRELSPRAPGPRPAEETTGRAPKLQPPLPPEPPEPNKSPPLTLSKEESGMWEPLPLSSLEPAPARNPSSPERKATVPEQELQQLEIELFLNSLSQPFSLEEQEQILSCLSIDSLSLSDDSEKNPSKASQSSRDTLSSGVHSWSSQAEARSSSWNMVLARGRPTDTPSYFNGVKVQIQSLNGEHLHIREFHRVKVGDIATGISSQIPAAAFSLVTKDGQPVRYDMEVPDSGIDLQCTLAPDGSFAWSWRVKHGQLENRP

Row | SMILES | IC50 [1] [nM] | melting point | IC50 ([2]; Homo sapiens, KMS-12-BM, 96 h) [nM] | IC50 [3] [nM] | IC50 [2] [nM] | IC50 ([3]; Homo sapiens, JJN-3, 96 h) [nM]
1 | COc1ncc(Cl)cc1Nc1nccc(-c2cc(C#N)c3c(c2)C(C)(CO)CN3)n1 (stereo not drawn) [Compound 3] | 8.3 | 254 °C | > 10000 | – | – | 81
2 | Cc1ncc(Cl)cc1Nc1nccc(-c2cc(C#N)c3c(c2)C(C)(CO)CN3)n1 (stereo not drawn) [Compound 4] | 3.6 | 277 °C and 280 °C | ~7410 | – | – | 97
3 | CC1(CO)CNc2c(C#N)cc(-c3ccnc(Nc4cc(Cl)cnc4Cl)n3)cc21 (stereo not drawn) [Compound 5] | ~8.51 | 261 °C | > 10000 | – | – | 170
4 | COc1ncccc1Nc1nccc(-c2cc(C#N)c3c(c2)[C@@](C)(CO)CN3)n1 [Compound 6] | 2.4 | 241 °C | > 10000 | – | – | ~245
5 | COc1ncccc1Nc1nccc(-c2cc(C#N)c3c(c2)[C@](C)(CO)CN3)n1 [Compound 7] | 15.5 | 245 °C | > 10000 | – | – | 1580
6 | CCOC(=O)c1ccc(Nc2nccc(-c3cc(C#N)c4c(c3)C(C)(CO)CN4)n2)cn1 (stereo not drawn) [Compound 9] | 5.3 | 238 °C | 427 | – | – | 219
7 | COCCNc1nc(OC)c(Nc2nccc(-c3cc(C#N)c4c(c3)[C@@](C)(CO)CN4)n2)cc1Cl [Compound 10] | 8.5 | 231 °C | > 10000 | – | – | 58
8 | COCCCn1cccc(Nc2nccc(-c3cc(C#N)c4c(c3)[C@@](C)(CO)CN4)n2)c1=O [Compound 10i] | 3 | 192 °C | 4790 | – | – | 339
9 | COCCNc1nc(OC)c(Nc2nccc(-c3cc(C#N)c4c(c3)[C@](C)(CO)CN4)n2)cc1Cl [Compound 11] | 10.5 | 236 °C | > 10000 | – | – | ~347
10 | COCCNc1ccc(Nc2nccc(-c3cc(C#N)c4c(c3)C(C)(CO)CN4)n2)c(OC)n1 (stereo not drawn) [Compound 12] | 12.9 | 120 °C | > 10000 | – | – | 589
11 | COCCNc1nc(OC(C)C)c(Nc2nccc(-c3cc(C#N)c4c(c3)C(C)(CO)CN4)n2)cc1Cl (stereo not drawn) [Compound 13] | 28.8 | 125 °C | > 10000 | – | – | 447
12 | COc1ncc(Cl)cc1Nc1nccc(-c2cc(C#N)c3c(c2)[C@@](C)(CO)CN3)n1 [Compound 14] | 5.5 | 266 °C | > 10000 | – | – | 372
13 | COCCn1cc(Cl)cc(Nc2nccc(-c3cc(C#N)c4c(c3)[C@@](C)(CO)CN4)n2)c1=O [Compound 14i] | 1.4 | – | > 10000 | – | – | 24
14 | CN1CCC(Oc2ncc(Cl)cc2Nc2nccc(-c3cc(C#N)c4c(c3)C(C)(CO)CN4)n2)CC1 (stereo not drawn) [Compound 15] | 2.9 | – | > 10000 | – | – | 24
15 | Cn1cc(Cl)cc(Nc2nccc(-c3cc(C#N)c4c(c3)C(C)(CO)CN4)n2)c1=O (stereo not drawn) [Compound 15i] | 3.6 | 295 °C | > 10000 | – | – | ~427
16 | CCOc1ncccc1Nc1nccc(-c2cc(C#N)c3c(c2)C(C)(CO)CN3)n1 (stereo not drawn) [Compound 16] | 3.8 | 248 °C | > 10000 | – | – | 245
17 | [2H]C([2H])([2H])Oc1ncccc1Nc1nccc(-c2cc(C#N)c3c(c2)C(C)(CO)CN3)n1 (stereo not drawn) [Compound 17] | 2.5 | 248 °C | > 10000 | – | – | 288
18 | CC(C)Oc1ncccc1Nc1nccc(-c2cc(C#N)c3c(c2)C(C)(CO)CN3)n1 (stereo not drawn) [Compound 18] | 9.1 | 140 °C | > 10000 | – | – | 776
19 | C[C@]1(CO)CNc2c(C#N)cc(-c3ccnc(Nc4cc(Cl)cnc4OC4CCOCC4)n3)cc21 [Compound 22] | 10.2 | – | > 10000 | – | – | 417
20 | CC1(CO)CNc2c(C#N)cc(-c3ccnc(Nc4ccc(N5CCNCC5)cn4)n3)cc21 (stereo not drawn) [Compound 32] | 6.5 | – | 437 | – | – | 89
21 | COCCOc1ncccc1Nc1nccc(-c2cc(C#N)c3c(c2)[C@@](C)(CO)CN3)n1 [Compound 33] | 4.2 | – | > 10000 | – | – | 298
22 | COc1nc(C(F)(F)F)ccc1Nc1nccc(-c2cc(C#N)c3c(c2)[C@@](C)(CO)CN3)n1 [Compound 54] | 39.8 | – | > 10000 | – | – | 4070
23 | COc1nnc(Cl)cc1Nc1nccc(-c2cc(C#N)c3c(c2)C(C)(CO)CN3)n1 (stereo not drawn) [Compound 124] | 3.8 | – | > 10000 | – | – | ~144
24 | COc1ncncc1Nc1nccc(-c2cc(C#N)c3c(c2)C(C)(CO)CN3)n1 (stereo not drawn) [Compound 130] | 4.6 | – | > 10000 | – | – | 468
25 | Cc1nc(C)c(Cl)c(Nc2nccc(-c3cc(C#N)c4c(c3)[C@@](C)(CO)CN4)n2)n1 [Compound 132] | 12.9 | – | > 10000 | – | – | 3310

The remaining lines, values ahead:

Row | IC50 [1] [nM] | melting point | IC50 ([2]; Homo sapiens, KMS-12-BM, 96 h) [nM] | IC50 [3] [nM] | IC50 [2] [nM] | IC50 ([3]; Homo sapiens, JJN-3, 96 h) [nM] | SMILES
26 | 19.5 | – | – | – | – | – | Cc1cnc(OCC2CCCN2C2CC2)c(Nc2nccc(-c3cc(C#N)c4c(c3)[C@@](C)(CO)CN4)n2)c1 (mixture of isomers) [Compound 175]
27 | 16.2 | 200 °C | > 10000 | 525 | – | – | Cc1ncc(Nc2nccc(-c3cc(C#N)c4c(c3)[C@@](C)(CO)CN4)n2)c(OCC2CCCO2)n1 (single isomer, unassigned) [Compound 137]
28 | 29.5 | – | – | 1510 | > 10000 | – | Cc1ncc(Nc2nccc(-c3cc(C#N)c4c(c3)[C@@](C)(CO)CN4)n2)c(OCC2CCCO2)n1 (single isomer, unassigned) [Compound 138]
29 | 22.9 | – | > 10000 | – | – | ~1950 | Cc1nc(Nc2nccc(-c3cc(C#N)c4c(c3)[C@@](C)(CO)CN4)n2)cc(N2CCN(CCO)CC2)n1 [Compound 133]
30 | 38.9 | – | > 10000 | – | – | > 10000 | Cc1nc(Nc2nccc(-c3cc(C#N)c4c(c3)[C@@](C)(CO)CN4)n2)cc(N2CCOCC2)n1 [Compound 134]
31 | 17.8 | – | > 10000 | – | – | ~10000 | COCCOc1nc(P(C)(C)=O)ncc1Nc1nccc(-c2cc(C#N)c3c(c2)[C@@](C)(CO)CN3)n1 [Compound 139]
32 | 15.1 | – | > 10000 | – | – | 6310 | Cc1ncc(Nc2nccc(-c3cc(C#N)c4c(c3)[C@@](C)(CO)CN4)n2)c(OCC2(C)COC2)n1 [Compound 142]
33 | 7.8 | – | > 10000 | – | – | 347 | COc1nc(C2=CCOCC2)ncc1Nc1nccc(-c2cc(C#N)c3c(c2)[C@@](C)(CO)CN3)n1 [Compound 143]
34 | 24 | – | > 10000 | – | – | > 10000 | Cc1ncc(Nc2nccc(-c3cc(C#N)c4c(c3)[C@@](C)(CO)CN4)n2)c(OCC(=O)N(C)C)n1 [Compound 144]
35 | 9.5 | – | – | 479 | 4790 | – | COC[C@@]1(C)CNc2c(C#N)cc(-c3ccnc(Nc4cc(Cl)cnc4C)n3)cc21 [Compound 145]
36 | 7.9 | > 260 °C | – | – | – | – | Cc1cnc(OCC2(C)COC2)c(Nc2nccc(-c3cc(C#N)c4c(c3)[C@@](C)(CO)CN4)n2)c1 [Compound 147]
37 | 34.7 | – | ~5010 | – | – | 3160 | Cc1nccnc1Nc1nccc(-c2cc(C#N)c3c(c2)[C@@](C)(CO)CN3)n1 [Compound 163]
38 | 4.8 | – | – | – | – | – | Cc1cc(Nc2nccc(-c3cc(C#N)c4c(c3)[C@@](C)(CO)CN4)n2)c(C)nc1OC1CCN(C2CC2)CC1 [Compound 176]
